Data from publication PMC11303563 (Communications Medicine, 2024).
“And” between values parts separate entries of the source, which are not always exact repeats. Equal values may be shown once.

Experiments:
[1] = system: high-fat diet (HFD)-induced obesity model mice; assay: Weight of epididymal adipose tissue (visceral fat) in HFD mice; type: in vivo, C57BL/6J mice; settings: for Fig. 3b (weight of epididymal adipose tissue), group mean (Mean 2): n=10; for Fig. 3b (weight of epididymal adipose tissue), group mean (Mean 2) / Fig. 3b (weight of epididymal adipose tissue), Mean Diff. ND vs. treatment (Tukey) / Fig. 3b (weight of epididymal adipose tissue), Mean Diff. Vehicle vs. treatment (Tukey) / Epididymal adipose weight, individual mice (Fig. 3b): in mg (unit assumed); for Fig. 3b (weight of epididymal adipose tissue), Mean Diff. ND vs. treatment (Tukey): ND minus treated; for Fig. 3b (weight of epididymal adipose tissue), Mean Diff. Vehicle vs. treatment (Tukey): Vehicle minus treated
Protocol: (§1) Epididymal adipose tissue was weighed.
(§2) Fig. 3 Effects of intraperitoneal injection of TH analogs on body weight and deposition of visceral fat. […] After three weeks of injection, body weight (a), and weight of the epididymal adipose tissue (b) were measured.

[2] = In vitro blood-brain barrier permeability assay (BBB kit RBT-24H); type: in vitro ADME, rat
Protocol: Therefore, we tested BBB transparency in vitro using the BBB kit RBT-24H (PharmaCo-Cell)[35]. […] Blood-brain barrier permeability assay The blood-brain barrier (BBB) transparency of TH analogs was assessed in vitro using RBT-24H (PharmaCo-Cell)[5] according to the manufacturer 's protocol. […] After 30 min, the assay buffer in the wells mimicking the abluminal side was collected, and the concentration of the compounds was measured using liquid chromatography-mass spectrometry (LC-MS). […] These tips were preconditioned with 20 μL of acetonitrile and 20 μL of 0.1% TFA in purified water. 100 μL of the samples were loaded onto the preconditioned tips, washed with 200 μL of DW, and then eluted with 10 μL of acetonitrile. Triazine (1% vol/vol) was added to the eluent as an internal standard. […] 3 μm; Imtakt, Kyoto, Japan). All the experiments were performed using an Ultimate 3000 UHPLC system coupled with a Q Exactive Plus Orbitrap mass spectrometer (Thermo Fisher Scientific). […] Data were shown as mean ± standard deviation (n=3).

[3] = system: THR-regulated genes and lipid metabolism-related genes in the liver
[4] = system: high-fat diet (HFD)-induced obesity model mice; assay: Body weight of high-fat diet-induced obesity model mice; type: in vivo, C57BL/6J mice; design: Body weight, Mean Diff. ND vs. treated: unit not given here; settings: for Body weight, 95.00% CI of diff. ND vs. treated / Body weight, Mean Diff. ND vs. treated: ND group as comparator; for Body weight, 95.00% CI of diff. ND vs. treated / Body weight, Mean Diff. ND vs. treated / Body weight, 95.00% CI of diff. Vehicle vs. treated / Body weight, Mean Diff. Vehicle vs. treated: Tukey's multiple comparisons test; for Body weight, Mean Diff. Vehicle vs. treated / Body weight, group mean (Fig. 3a) / Body weight, individual mice (Fig. 3a): in g (unit assumed); for Body weight, group mean (Fig. 3a) / Body weight, individual mice (Fig. 3a) / decrease of body weight compared to vehicle: HFD mice; for Body weight, group mean (Fig. 3a): n 10; for decrease of body weight compared to vehicle: 3 weeks
Protocol: The injection was given 6 h after light on. Food consumption and body weights were measured weekly. Food and water were provided to the animals ad libitum. The animals were treated according to the guidelines of Nagoya University, and all experimental procedures were approved by the Animal Experiment Committee of Nagoya University (A210715-003).
as §1, §2

[5] = system: high-fat diet (HFD)-induced obesity model mice; assay: Serum lipid analysis (total cholesterol, triglycerides) in HFD mice; type: in vivo, C57BL/6J mice; design: Serum TC (Fig. 4a), individual mouse values / Serum TG (Fig. 4b), individual mouse values / Serum TC (Fig. 4a), Mean Diff. ND vs. treatment (Tukey) / Serum TC (Fig. 4a), Mean Diff. Vehicle vs. treatment (Tukey) / Serum TC (Fig. 4a), group mean (Mean 2) / Mean Diff., ND vs. treated (Fig. 4b) / Mean Diff., Vehicle vs. treated (Fig. 4b) / Mean (Fig. 4b): unit not given here; settings: for Serum TC (Fig. 4a), group mean (Mean 2) / Mean (Fig. 4b): n=10; for Serum TC (Fig. 4a), Mean Diff. ND vs. treatment (Tukey): ND minus treated; for Serum TC (Fig. 4a), Mean Diff. Vehicle vs. treatment (Tukey): Vehicle minus treated; for Mean Diff., ND vs. treated (Fig. 4b) / Mean Diff., Vehicle vs. treated (Fig. 4b): Tukey's multiple comparisons test; for Mean (Fig. 4b): group mean
Protocol: Fig. 4 Effects of TH analogs on the accumulation of lipids in mice. […] After 3 weeks of injection, serum and liver tissues were collected, and the amount of serum cholesterol (a), serum triglycerides (b), liver cholesterol (c), liver triglycerides (d), and liver total lipids (e) were measured.

[6] = HFD mice, 1 μmol/kg day, RT-qPCR, reference gene Rps18
[7] = liver gene expression, 1µmol dose group vs. Vehicle

For `Cc1cc(OCC(=O)O)cc(C)c1Cc1ccc(O)c(C(C)C)c1` [GC-1], the “Fig. 3b (weight of epididymal adipose tissue), group mean (Mean 2)” value ([1]; 0.1 µmol, HFD mice) was 1486, the “Fig. 3b (weight of epididymal adipose tissue), Mean Diff. ND vs. treatment (Tukey)” value ([1]; 0.1 µmol) was -802.3 and the “Fig. 3b (weight of epididymal adipose tissue), Mean Diff. Vehicle vs. treatment (Tukey)” value ([1]; 0.1 µmol) was 1372. The “Fig. 3b (weight of epididymal adipose tissue), group mean (Mean 2)” value ([1]; 1 µmol, HFD mice) was 1093, the “Fig. 3b (weight of epididymal adipose tissue), Mean Diff. ND vs. treatment (Tukey)” value ([1]; 1 µmol) was -410.1 and the “Fig. 3b (weight of epididymal adipose tissue), Mean Diff. Vehicle vs. treatment (Tukey)” value ([1]; 1 µmol) was 1765. The “Epididymal adipose weight, individual mice (Fig. 3b)” value ([1]; HFD mice, 0.1 µmol dose group) was 1120.1 and 1287.3 and 1051.5 and 1562.9 and 1102.8 and 1733.2 and 1866.1 and 1900.9 and 1746.2 and 1485.7, the “Epididymal adipose weight, individual mice (Fig. 3b)” value ([1]; HFD mice, 1 µmol dose group) was 1157.5 and 882.3 and 1400.3 and 1216.9 and 1046.3 and 975.7 and 1192.5 and 1112.9 and 1063.5 and 886.8 and the “weight of the epididymal adipose tissue vs vehicle” value ([1]; HFD mice, i.p., dose not given (0.1 or 1 µmol/kg day), 3 weeks) was “decreased significantly”. The Abluminal concentration ([2]; 10 µM on luminal side, 30 min, mean ± standard deviation (n=3)) was 0.0966 ± 0.0234 µM, the Papp at 30 min, 10 µM ([2]; rat, 10 μM on luminal side, read-out: apparent permeability (Papp)) was 14.6 ± 3.54 ×10⁻⁶ cm/s and the “Dio1 expression in the liver, individual animal values” ([3]; 1µmol, one value per animal) was 3.829 and 3.919 and 5.168 and 4.354 and 3.692 and 2.159 and 3.566 and 3.314 and 5.1441 and 5.131. The “Ldlr expression in the liver, individual animal values” ([3]; 1µmol, one value per animal) was 1.223 and 2.2 and 0.6334 and 0.7002 and 0.6702 and 3.257 and 0.3372 and 1.534 and 1.675, the “Me1 expression in the liver, individual animal values” ([3]; 1µmol, one value per animal) was 1.623 and 3.346 and 4.729 and 3.444 and 1.386 and 2.548 and 5.3983 and 2.089 and 4.684 and 5.253 and the “Pnpla2 expression in the liver, individual animal values” ([3]; 1µmol, one value per animal) was 2.545 and 1.795 and 3.166 and 2.343 and 2.009 and 2.4714 and 3.073 and 2.97 and 1.253 and 2.348. The “Srebp1c expression in the liver, individual animal values” ([3]; 1µmol, one value per animal) was 0.08164 and 0.06602 and 0.1318 and 0.09978 and 0.1458 and 0.0919 and 0.4057 and 0.2719 and 0.0552 and 0.07309, the “Thrsp expression in the liver, individual animal values” ([3]; 1µmol, one value per animal) was 1.4847 and 1.604 and 3.066 and 1.407 and 2.579 and 0.6637 and 2.019 and 1.066 and 1.315 and 1.484 and the “liver expression of Dio1 vs vehicle” value [3, 6] was “significantly upregulated”. For the same molecule, the “liver expression of Ldlr vs vehicle” value [3, 6] was “not significantly different”, the “liver expression of Me1 vs vehicle” value [3, 6] was “significantly upregulated” and the “liver expression of Pnpla2 vs vehicle” value [3, 6] was “significantly higher”. The “liver expression of Srebp1c vs vehicle” value [3, 6] was “significantly lower”, the “liver expression of Thrsp vs vehicle” value [3, 6] was “increased” and the “Pnpla2, Dunn's multiple comparisons test, Mean rank diff. (Vehicle vs. compound)” value [3, 7] was -16.8. For the same molecule, the “Srebp1c, Dunn's multiple comparisons test, Mean rank diff. (Vehicle vs. compound)” value [3, 7] was 22.27, the “Pnpla2, Mean rank of treatment group (Mean rank 2)” value ([3]; liver gene expression, 1µmol dose group, Vehicle mean rank 8) was 24.8 and the “Srebp1c, Mean rank of treatment group (Mean rank 2)” value ([3]; liver gene expression, 1µmol dose group, Vehicle mean rank […]) was 11.4. For the same molecule, the “Body weight, 95.00% CI of diff. ND vs. treated” value ([4]; 0.1 µmol dose group) was -9.046 to -0.3347, the “Body weight, Mean Diff. ND vs. treated” value ([4]; 0.1 µmol dose group) was -4.69 and the “Body weight, 95.00% CI of diff. Vehicle vs. treated” value ([4]; 0.1 µmol dose group) was 5.485 to 13.92. The “Body weight, Mean Diff. Vehicle vs. treated” value ([4]; 0.1 µmol dose group) was 9.704, the “Body weight, 95.00% CI of diff. ND vs. treated” value ([4]; 1 µmol dose group) was -9.111 to -0.3997 and the “Body weight, Mean Diff. ND vs. treated” value ([4]; 1 µmol dose group) was -4.755. The “Body weight, 95.00% CI of diff. Vehicle vs. treated” value ([4]; 1 µmol dose group) was 5.420 to 13.86, the “Body weight, Mean Diff. Vehicle vs. treated” value ([4]; 1 µmol dose group) was 9.639 and the “Body weight, group mean (Fig. 3a)” value ([4]; 0.1 µmol dose group) was 33.21. The “Body weight, individual mice (Fig. 3a)” value ([4]; 0.1 µmol dose group) was 29.83 and 31.33 and 29.67 and 36.57 and 36.31 and 35.71 and 35.26 and 34.18 and 33.67 and 29.56, the “Body weight, group mean (Fig. 3a)” value ([4]; 1 µmol dose group) was 33.27 and the “Body weight, individual mice (Fig. 3a)” value ([4]; 1 µmol dose group) was 32.13 and 30.51 and 31.76 and 34.15 and 34.95 and 32.95 and 36.28 and 31.91 and 35.57 and 32.53. The “decrease of body weight compared to vehicle” value ([4]; i.p. 0.1 µmol/kg day) was ~ 20%, the “decrease of body weight compared to vehicle” value ([4]; i.p. 1 µmol/kg day) was ~ 20% and the “Serum TC (Fig. 4a), individual mouse values” ([5]; 0.1 µmol, HFD mice) was 76.25 and 108.417 and 114.042 and 114.792 and 113.958 and 112.208 and 91.25 and 101.875 and 101.042 and 98.458. The “Serum TG (Fig. 4b), individual mouse values” ([5]; 0.1 µmol, HFD mice) was 47.583 and 67.583 and 60.917 and 64.75 and 51.417 and 64.25 and 45.083 and 40.917 and 120.083, the “Serum TC (Fig. 4a), group mean (Mean 2)” value ([5]; 0.1 µmol, HFD mice) was 103.2 and the “Serum TC (Fig. 4a), Mean Diff. ND vs. treatment (Tukey)” value ([5]; 0.1 µmol) was 76.19. For the same molecule, the “Serum TC (Fig. 4a), Mean Diff. Vehicle vs. treatment (Tukey)” value ([5]; 0.1 µmol) was 146.8, the “Serum TC (Fig. 4a), individual mouse values” ([5]; 1 µmol, HFD mice) was 114.667 and 103 and 123.208 and 101.042 and 100.208 and 100.542 and 101.667 and 117.708 and 116.875 and 87.208 and the “Serum TG (Fig. 4b), individual mouse values” ([5]; 1 µmol, HFD mice) was 89.25 and 100.917 and 117.583 and 93.417 and 90.917 and 81.75 and 125.917 and 105.083 and 72.583 and 61.75. The “Serum TC (Fig. 4a), group mean (Mean 2)” value ([5]; 1 µmol, HFD mice) was 106.6, the “Serum TC (Fig. 4a), Mean Diff. ND vs. treatment (Tukey)” value ([5]; 1 µmol) was 72.81 and the “Serum TC (Fig. 4a), Mean Diff. Vehicle vs. treatment (Tukey)” value ([5]; 1 µmol) was 143.5. The “Mean Diff., ND vs. treated (Fig. 4b)” value ([5]; ND minus 0.1 µmol group) was 84.09, the “Mean Diff., ND vs. treated (Fig. 4b)” value ([5]; ND minus 1 µmol group) was 52.85 and the “Mean Diff., Vehicle vs. treated (Fig. 4b)” value ([5]; Vehicle minus 0.1 µmol group) was 53.09. For the same molecule, the “Mean Diff., Vehicle vs. treated (Fig. 4b)” value ([5]; Vehicle minus 1 µmol group) was 21.86, the “Mean (Fig. 4b)” value ([5]; 0.1 µmol, HFD mice) was 62.68 and the “Mean (Fig. 4b)” value ([5]; 1 µmol, HFD mice) was 93.92. For the same molecule, the “serum triglyceride level vs vehicle” value ([5]; HFD mice, i.p. 0.1 µmol/kg day, 3 weeks) was “decreased”.
